From US9681664B2, “Macrocyclic picolinamides as fungicides” (Dow Agrosciences LLC, priority 2012, dated 2017)
Like-named read-outs stand apart in the source and are kept apart here.

Assays:
Assay type in all cases: in vivo
[1] = test system: Puccinia triticina; Synonym: Puccinia recondite f. sp. tritici; experiment: Wheat brown rust (PUCCRT) disease control on wheat seedlings; settings: Puccinia triticina; for pest or weed control at 121.5 g/ha: low volume application, 121.5 g/H
Outline: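 Acetone solutions diluted in nine volumes of water with 110 ppm Triton X-100 sprayed to run-off on first-leaf Yuma wheat seedlings (track spray: EC with 0.1% Trycol 5941). Puccinia triticina spores inoculated before or after treatment; overnight dark dew at 22° C., 100% RH, then greenhouse at 24° C. for disease development.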

Cercospora beticola = experiment: Leaf spot of sugar beets (CERCBE) disease control; settings: 24 h, 1 Day Protectant, high volume, read-out: Disease Control CERCBE 1 DP
Description: Technical grades of materials were dissolved in acetone, which were then mixed with nine volumes of water containing 110 ppm Triton X-100. The fungicide solutions were applied onto wheat seedlings using an automated booth sprayer to run-off. All sprayed plants were allowed to air dry prior to further handling. All fungicides were evaluated using the aforementioned method for their activity vs. all target diseases. Wheat leaf blotch and brown rust activity were also evaluated using track spray applications, in which case the fungicides were formulated as EC formulations, containing 0.1% Trycol 5941 in the spray solutions. Sugar beet plants (variety HH88) were grown in soil-less Metro mix and trimmed regularly to maintain a uniform plant size prior to test. Plants were inoculated with a spore suspension 24 hr after fungicide treatments. Inoculated plants were kept in a dew chamber at 22° C. for 48 hr then incubated in a greenhouse set at 24° C. under a clear plastic hood with bottom ventilation until disease symptoms were fully expressed. Fungicide formulation, application and disease assessment on the sprayed leaves followed the procedures as described in the Example A.

Rhyncosporium secalis = experiment: Barley scald (RHYNSE) disease control; settings: 24 h, High volume application, 1 Day Protectant, read-out: RHYNSE 1 DP disease control
Description: Technical grades of materials were dissolved in acetone, which were then mixed with nine volumes of water containing 110 ppm Triton X-100. The fungicide solutions were applied onto wheat seedlings using an automated booth sprayer to run-off. All sprayed plants were allowed to air dry prior to further handling. All fungicides were evaluated using the aforementioned method for their activity vs. all target diseases. Wheat leaf blotch and brown rust activity were also evaluated using track spray applications, in which case the fungicides were formulated as EC formulations, containing 0.1% Trycol 5941 in the spray solutions. Barley seedlings (variety Harrington) were propagated in soil-less Metro mix, with each pot having 8 to 12 plants, and used in the test when first leaf was fully emerged. Test plants were inoculated by an aqueous spore suspension of Rhyncosporium secalis 24 hr after fungicide treatments. After inoculation the plants were kept in a dew room at 20° C. with 100% relative humidity for 48 hr. The plants were then transferred to a greenhouse set at 20° C. for disease to develop. Fungicide formulation, application and disease assessment on the sprayed leaves followed the procedures as described in the Example A.

[2] = test system: Magnaporthe grisea; Anamorph: Pyricularia oryzae; experiment: whole plant or invertebrate; settings: 24 h, read-out: PYRIOR 1 DP disease control
Alternaria solani = experiment: Tomato early blight (ALTESO) disease control; settings: 24 h, 1 Day Protectant, high volume, read-out: Disease Control ALTESO 1 DP
Description: Technical grades of materials were dissolved in acetone, which were then mixed with nine volumes of water containing 110 ppm Triton X-100. The fungicide solutions were applied onto wheat seedlings using an automated booth sprayer to run-off. All sprayed plants were allowed to air dry prior to further handling. All fungicides were evaluated using the aforementioned method for their activity vs. all target diseases. Wheat leaf blotch and brown rust activity were also evaluated using track spray applications, in which case the fungicides were formulated as EC formulations, containing 0.1% Trycol 5941 in the spray solutions. Tomato plants (variety Outdoor girl) were propagated in soil-less Metro mix, with each pot having one plant, and used when 12 to 14 days old. Test plants were inoculated with an aqueous spore suspension of Alternaria solani 24 hr after fungicide treatments. After inoculation the plants were kept in 100% relative humidity (one day in a dark dew chamber followed by two to three days in a lighted dew chamber at 20° C.) to permit spores to germinate and infect the leaf. The plants were then transferred to a growth room at 22° C. for disease to develop. Fungicide formulation, application and disease assessment on the sprayed leaves followed the procedures as described in the Example A.

[3] = test system: Glomerella lagenarium; Anamorph: Colletotrichum lagenarium; experiment: Cucumber anthracnose (COLLLA) disease control; settings: Colletotrichum orbiculare, 24 h, 1 Day Protectant, high volume, read-out: Disease Control COLLLA 1 DP
Description: Technical grades of materials were dissolved in acetone, which were then mixed with nine volumes of water containing 110 ppm Triton X-100. The fungicide solutions were applied onto wheat seedlings using an automated booth sprayer to run-off. All sprayed plants were allowed to air dry prior to further handling. All fungicides were evaluated using the aforementioned method for their activity vs. all target diseases. Wheat leaf blotch and brown rust activity were also evaluated using track spray applications, in which case the fungicides were formulated as EC formulations, containing 0.1% Trycol 5941 in the spray solutions. Cucumber seedlings (variety Bush Pickle) were propagated in soil-less Metro mix, with each pot having one plant, and used in the test when 12 to 14 days old. Test plants were inoculated with an aqueous spore suspension of Colletotrichum lagenarium 24 hr after fungicide treatments. After inoculation the plants were kept in a dew room at 22° C. with 100% relative humidity for 48 hr to permit spores to germinate and infect the leaf. The plants were then transferred to a growth room set at 22° C. for disease to develop. Fungicide formulation, application and disease assessment on the sprayed leaves followed the procedures as described in the Example A.

[4] = 24 h, High volume application, 1 Day Protectant, read-out: PUCCRT 1DP disease control
[5] = 72 h, High volume application, 3 Day Curative, read-out: PUCCRT 3DC disease control
[6] = 24 h, Wheat Brown Rust, 1 Day Protectant, high volume application, read-out: Disease Control PUCCRT 1 DP 100 ppm
[7] = 24 h, Wheat Brown Rust, 1 Day Protectant, read-out: Disease Control PUCCRT 1 DP 121.5 g/H
[8] = 72 h, Wheat Brown Rust, 3 Day Curative, high volume application, read-out: Disease Control PUCCRT 3 DC 100 ppm
[9] = 72 h, Wheat Brown Rust, 3 Day Curative, read-out: Disease Control PUCCRT 3 DC 121.5 g/H

Row | SMILES | pest or weed control at 100 ppm [1, 4] | pest or weed control at 100 ppm [1, 5] | pest or weed control at 100 ppm (Cercospora beticola) | pest or weed control at 100 ppm (Rhyncosporium secalis) | pest or weed control at 100 ppm [2] | pest or weed control at 100 ppm (Alternaria solani) | pest or weed control at 100 ppm [3] | pest or weed control at 100 ppm [1, 6] | pest or weed control at 121.5 g/ha [1, 7] | pest or weed control at 100 ppm [1, 8] | pest or weed control at 121.5 g/ha [1, 9]
1 | COc1ccnc(C(=O)N[C@H]2CCC[C@H](Oc3ccccc3)[C@@H](Oc3ccccc3)[C@H](C)OC2=O)c1OCOC(C)=O [F20] | 80 to 100% | 80 to 100% | 80 to 100% | 80 to 100% | 80 to 100% | 0 to 80% | 80 to 100% |  |  |  | 
2 | COc1ccnc(C(=O)N[C@H]2CCC[C@H](Oc3ccccc3)[C@@H](OCC(C)C)[C@H](C)OC2=O)c1OCOC(C)=O [F28] | 80 to 100% | 80 to 100% | 80 to 100% | 80 to 100% | 80 to 100% | 0 to 80% | 80 to 100% |  |  |  | 
3 | COc1ccnc(C(=O)N[C@H]2CCC[C@H](OCC(C)C)[C@@H](OC3CCCC3)[C@H](C)OC2=O)c1OCOC(C)=O [F39] | 80 to 100% | 80 to 100% | 80 to 100% | 80 to 100% | 80 to 100% | 80 to 100% | 80 to 100% |  |  |  | 
4 | CCCO[C@H]1CCC[C@H](NC(=O)c2nccc(OC)c2OCOC(C)=O)C(=O)O[C@@H](C)[C@@H]1Oc1ccccc1 [F138] | 80 to 100% | 80 to 100% | 80 to 100% | 80 to 100% | 80 to 100% | 80 to 100% | 80 to 100% |  |  |  | 
5 | CCCO[C@H]1CCC[C@H](NC(=O)c2nccc(OC)c2OCOC(=O)C(C)C)C(=O)O[C@@H](C)[C@@H]1Oc1ccccc1 [F139] | 80 to 100% | 80 to 100% | 80 to 100% | 80 to 100% | 80 to 100% | 80 to 100% | 80 to 100% |  |  |  | 
6 | CCCO[C@H]1CCC[C@H](NC(=O)c2nccc(OC)c2OC(=O)CCOC)C(=O)O[C@@H](C)[C@@H]1Oc1ccccc1 [F140] | 80 to 100% | 80 to 100% | 80 to 100% | 80 to 100% | 80 to 100% | 80 to 100% | 80 to 100% |  |  |  | 
7 | CCCO[C@H]1CCC[C@H](NC(=O)c2nccc(OC)c2OC(C)=O)C(=O)O[C@@H](C)[C@@H]1Oc1ccccc1 [F141] | 80 to 100% | 80 to 100% | 80 to 100% | 80 to 100% | 80 to 100% | 80 to 100% | 80 to 100% |  |  |  | 
8 | CCCO[C@H]1CCC[C@H](NC(=O)c2nccc(OC)c2OCOC(=O)C(C)C)C(=O)O[C@@H](C)[C@@H]1OC1CCCC1 [F154] | 80 to 100% | 80 to 100% | 80 to 100% | 80 to 100% | 80 to 100% | 80 to 100% | 80 to 100% |  |  |  | 
9 | CCCO[C@H]1CCC[C@H](NC(=O)c2nccc(OC)c2OCOC(C)=O)C(=O)O[C@@H](C)[C@@H]1OC1CCCC1 [F155] | 80 to 100% | 80 to 100% | 80 to 100% | 0 to 80% | 80 to 100% | 80 to 100% | 80 to 100% |  |  |  | 
10 | COc1ccnc(C(=O)N[C@H]2CCC[C@H](OCCCC(F)(F)F)[C@@H](OC3CCCC3)[C@H](C)OC2=O)c1OC(C)=O [F173] | 80 to 100% | 80 to 100% | 80 to 100% | 80 to 100% | 80 to 100% | 80 to 100% |  |  |  |  | 
11 | CCOCC(=O)OCOc1c(OC)ccnc1C(=O)N[C@H]1CCC[C@H](Oc2ccccc2)[C@@H](OC(=O)C2CCCC2)[C@H](C)OC1=O [F237] |  |  | 80 to 100% | < 0% | 80 to 100% | 0 to 80% | 0 to 80% | 80 to 100% | 80 to 100% | 80 to 100% | 0 to 80%
12 | COc1ccnc(C(=O)N[C@H]2CCC[C@H](Oc3ccccc3)[C@@H](OC(=O)C3CC3)[C@H](C)OC2=O)c1OCOC(=O)C(C)C [F241] |  |  | 80 to 100% | 0 to 80% | 80 to 100% | 0 to 80% | 80 to 100% | 80 to 100% | 80 to 100% | 80 to 100% | 80 to 100%
13 | COc1ccnc(C(=O)N[C@H]2CCC[C@H](Oc3ccccc3)[C@@H](OC(=O)C3CC3)[C@H](C)OC2=O)c1OC(C)=O [F242] |  |  | 80 to 100% | < 0% | 80 to 100% | < 0% | 80 to 100% | 80 to 100% | 80 to 100% | 80 to 100% | 0 to 80%
14 | C=C(C)CO[C@H]1CCC[C@H](NC(=O)c2nccc(OC)c2OCOC(C)=O)C(=O)O[C@@H](C)[C@@H]1OC [F250] |  |  | 0 to 80% | 0 to 80% | 80 to 100% | 0 to 80% | 0 to 80% |  | 0 to 80% |  | 80 to 100%
15 | COc1ccnc(C(=O)N[C@H]2CCC[C@H](OCC(C)C)[C@@H](OC)[C@H](C)OC2=O)c1OCOC(C)=O [F251] |  |  | 0 to 80% | 0 to 80% | 80 to 100% | 0 to 80% | 80 to 100% |  | 80 to 100% |  | 80 to 100%
